The values that follow come from patent publication US10967032B2, “Optimum ratio for herbs combination obtained by using scientific-based formula for hypertension treatment and a composition thereof” (priority 2017, dated 2021).

Assay [1] relates to inositol triphosphate receptor (IP3R). The assay can be described thus: IP3R study: PE-induced contraction of pre-treated endothelium-denuded aortic rings. In kind it is cell-based, rat. The note with it: 100 μM pre-incubation; P<0.001. As for the experimental part: Similar with the VOCC mechanism study, three sets of experiments were carried out for investigating IP3R including the positive control set by applying the 2-APB (100 μM), control set (without treatment), and experimental sets by applying F1-2 (100 μl of 0.5, 2, and 8 mg/ml, separately, which equals to final concentration of 0.005, 0.02, and 0.08 mg/ml in tissue bath), in the endothelium-denuded isolated aortic rings. Similar protocol as elaborated in VOCC mechanism study was used to investigate this mechanism study. The only step different from VOCC mechanism study was the cumulative addition of CaCl2 was replaced by adding PE (1 μM) and left for 20 minutes to induce transient contraction after the 20 minutes pre-incubation with either 2-APB (positive control), F1-2 (experimental sets). The Cmax values were recorded and compared among each other.

The subject of assay [2] is voltage-operated calcium channel (VOCC). The assay can be described thus: VOCC study: CaCl2-induced vasoconstriction of pre-treated aortic rings. In kind it is cell-based, rat. The settings on record: 0.1, 0.3, 1 μM pre-incubation.
Experimental: The experiment started by rinsing the mounted aortic rings with normal Krebs' solution for 3 times at 10 minutes interval. After that, the aortic rings were rinsed with EGTA (0.2 mM) contained Ca^2+-free high K^+ Krebs' solution for 10 minutes to eradicate the Ca^2+ residue, followed by rinsing with Ca^2+-free high K^+ Krebs' solution for twice at 10 minutes intervals. The resting potential was re-adjusted to 1.0 g before the application of any chemicals. In the control set, CaCl2 was added cumulatively (0.01-10 mM) into the tissue bath at 3 minutes interval. […] In the experimental groups, the F1-2 was added into tissue baths for 20 minutes before the addition of CaCl2. After that, the concentration-response curves were constructed, and maximum contraction (Cmax) values were recorded and compared to each other.
For assay [3], the system named is spontaneous hypertensive rats (SHRs). The assay can be described thus: Antihypertensive effect in SHRs, 28 days oral administration, tail-cuff SBP, DBP, MAP. In kind it is in vivo, rat. The note with it: 80 mg/kg oral. As for the experimental part: All the orally administrated drugs were freshly prepared on the day the experiment was carried out. Thirty male SHRs were divided into five groups (n=6 per group) as such negative control, positive control (80 mg/kg of propranolol), and experimental groups (three different dosages for different groups). The weight, systolic BP, diastolic BP, and MAP of all SHRs in five groups were determined before the experiment was carried out and assigned as results for week 0. The negative control group of SHRs was treated with 5 ml/kg of distilled water. The positive control group was treated with 80 mg/kg of propranolol. The experimental groups were treated with 0.24273 (small dose), 0.48546 (medium dose), and 0.97092 g/kg (high dose) of F1-2, separately. Propranolol and F1-2 were prepared by dissolving in 0.5% of CMC prior to the administration. All drugs were orally administrated by using the 14-sized curved feeding needle (Kent Scientific Corporation, Torrington, Conn., USA) every morning after eight hours of fasting the night before, and were treated for 28 days consecutively with their weight, systolic BP, diastolic BP, and MAP measured once a week.
The SBP, DBP, and MAP were measured by using tail-cuff method with the non-invasive blood pressure measurement system, CODA (Kent Scientific Corporation, Torrington, Conn., USA) which was equipped with a controller, laptop CODA software, cuffs, animal restrainers, infrared warming pads, and infrared thermometer. The measurements were performed by the same researcher at the same daytime once weekly. Before the experiments commenced, the SHRs were housed in the restrainer according to their body size and pre-warmed on the warming plate at 32° C. and were covered by warming blanket for at least 15 minutes to intensify the pulsation of the tail artery. The measurements were repeated at least […] for each SHR to obtain at least six accepted measurements (n=6) by the CODA program. The obtained SBP, DBP, MAP of positive control and experimental groups were compared to the negative control.

As to `NCCOB(c1ccccc1)c1ccccc1` [Formula 2-APB, 2-APB], in assay [1], the “contraction tension abolished compared to control” value is listed as “approximately 97%”.

For `COC(=O)C1=C(C)NC(C)=C(C(=O)OC)C1c1ccccc1[N+](=O)[O-]` [nifedipine], the “suppression of the contractile tone compared to control” value in assay [2] is recorded as “at least 80%”. In assay [3] (28 days, control 189.19±3.61), `CC(C)NCC(O)COc1cccc2ccccc12` (centres unmarked) [propranolol] returned a DBP of 139.69±3.15 mmHg. The compound also returned an MAP in assay [3] (28 days, control 200.97±3.22) of 152.06±3.10 mmHg. In assay [3] (week 4 (28 days), control 225.81±2.77), this compound registered an SBP of 182.08±2.38 mmHg.
